According to patent publication US12448363B2, “Kinase inhibitors” (Vidya Therapeutics, Inc., priority 2020, dated 2025):

Key:
[1] = system: BTK Activity in RAMOS B Cells; assay: Assay to determine BTK activity in RAMOS B cells (anti-IgM, FLIPR Calcium 6); format: cell-based; conditions: EC80 anti-IgM, FLIPR calcium read
Protocol: On the day before assay, Ramos B cells were plated in plating medium (RPMI1640 medium containing 1% FBS and 1× pencillin-streptomycin). On the day of the assay, 2× dye solution was prepared following the manual of the FLIRP Calcium 6 Assay Kit: Dilute the dye with assay buffer (20 mM HEPES in 1×HBSS, pH7.4); Add probenecid to the final concentration of 5 mM; vortex vigorously for 1-2 minutes. Cells were collected by centrifuging, and the pellet was resuspended in plating medium. After counting, cells were resuspended at a density of 3×10^6/ml in plating medium. Equal volume of 2× dye solution was added to the cell suspension. Cells were then plated at 20 μl/well into a 384-well poly-D-lysine coated plate. Plate was centrifuged at 1000 rpm for 3 minutes and then incubated at 37° C. for 2 hours followed by an additional 15-minute incubation at 25° C. Compounds were prepared at 3× concentration in dilution buffer (20 mM HEPES and 0.1% BSA in 1×HBSS, pH 7.4). Serially diluted compound was transferred from source plate to a 384-well compound plate by using an Echo 550 (Labcyte). 20 μl/well compound dilution buffer was added to the compound plate and mixed on plate shaker for 2 mins. 4×EC80 of Anti-IgM (Jackson ImmunoResearch) was prepared in dilution buffer and 20 μl/well was added to a new 384-well compound plate. After 60 mins of incubation at 25° C. in the dark; cell plate, compound plate containing 4×EC80 of anti-IgM and FLIPR tips were placed into FLIPR (Molecular Devices). 10 ul/well of 4×EC80 anti-IgM was transferred to the cell plate by FLIPR. Plates were read for 160 sec with 1 sec interval.
With respect to Ramos activity, Table 9 lists activity as follows: • “A” denotes an IC50 of less than 10 nM; • “B” denotes an IC50 of from 10 nM to less than 100 nM; and • “C” denotes and IC50 of 100 nM or more.

BTK = BTK (Homo sapiens, UniProt Q06187); assay: Assay to determine activity against BTK (EZ reader, FLPeptide); format: biochemical; set-up: purchased Carna; conditions: ATP (1 mM), BTK (2 nM), room temperature for 90 minutes
Sequence of BTK (Q06187 whole entry): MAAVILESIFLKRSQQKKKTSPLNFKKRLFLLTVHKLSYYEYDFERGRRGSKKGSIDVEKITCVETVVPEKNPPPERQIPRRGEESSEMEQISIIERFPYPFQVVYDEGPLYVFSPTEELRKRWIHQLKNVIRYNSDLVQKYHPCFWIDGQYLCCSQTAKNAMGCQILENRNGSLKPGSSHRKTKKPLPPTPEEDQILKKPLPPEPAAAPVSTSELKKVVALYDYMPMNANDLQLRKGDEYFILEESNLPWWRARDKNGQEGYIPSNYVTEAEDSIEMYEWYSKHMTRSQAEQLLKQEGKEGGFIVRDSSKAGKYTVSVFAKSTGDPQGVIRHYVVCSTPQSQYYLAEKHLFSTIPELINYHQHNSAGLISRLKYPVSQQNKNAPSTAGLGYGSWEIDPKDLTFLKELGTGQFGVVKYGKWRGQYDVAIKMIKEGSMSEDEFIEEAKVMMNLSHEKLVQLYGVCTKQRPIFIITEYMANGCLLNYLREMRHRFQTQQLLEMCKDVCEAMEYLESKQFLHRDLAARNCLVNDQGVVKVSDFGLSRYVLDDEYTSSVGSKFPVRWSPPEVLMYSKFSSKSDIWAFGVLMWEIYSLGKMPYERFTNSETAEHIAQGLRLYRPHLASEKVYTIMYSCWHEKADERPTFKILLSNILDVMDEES
Protocol: Solutions of compounds (test or control) in DMSO were prepared at the desired concentrations, and serially diluted to 11 concentrations by 3-fold dilution in 384pp-plate using TECAN EVO200. 20 nL of stock were transferred to 384 plate using Echo550. DMSO was used as vehicle control.
Two separate solutions were prepared—an ATP solution containing MgCl2 (10 mM), Brij-35 (0.01%), DTT (2 mM), BSA (0.05%), EGTA (1 mM), HEPE (pH7.5) (50 mM), FLPeptide (6 uM) and ATP (4 mM); and a BTK solution containing MgCl2 (10 mM), Brij-35 (0.01%), DTT (2 mM), BSA (0.05%), EGTA (1 mM), HEPE (pH7.5) (50 mM) and BTK (2.67 nM). […] (Note the final volume of each well was 20 uL containing MgCl2 (10 mM), Brij-35 (0.01%), DTT (2 mM), BSA (0.05%), EGTA (1 mM), HEPE (pH7.5) (50 mM), FLPeptide (1.5 uM), ATP (1 mM) and BTK (2 nM).
The plates were incubated at room temperature for 90 minutes and then stopping buffer added (75 uL, containing 0.5 M EDTA) to terminate the reaction. Samples from each well were analyzed using EZ reader. The % remaining activity was calculated using read conversion ratio (CR) according to the equation: […]
XLFit (equation 201) was used to calculate IC50s by floating both bottom and top.
With respect to BTK activity, Table 4 lists activity as follows: • “A” denotes an IC50 of less than 10 nM, • “B” denotes an IC50 of from 10 nM to less than 100 nM; and • “C” denotes and IC50 of 100 nM or more.

SMILES | IC50 ([1]; Homo sapiens, Ramos) [nM] | IC50 (BTK) [nM] | IC50 [1] [nM] | IC50 ([1]; Homo sapiens) [nM]
C=CC(=O)N1CCCC(c2c(F)c(F)c(C(N)=O)c3[nH]c(C)c(F)c23)C1 (centres unmarked) [Compound 13, 4-(1-acryloylpiperidin-3-yl)-3,5,6-trifluoro-2-methyl-1H-indole-7-carboxamide] | < 10 | < 10 |  | 
C=CC(=O)N1CCCC(c2c(F)cc(C(N)=O)c3[nH]c(C)c(C(F)F)c23)C1 (centres unmarked) [Compound 14, 4-(1-acryloylpiperidin-3-yl)-3-(difluoromethyl)-5-fluoro-2-methyl-1H-indole-7-carboxamide] | ≥ 100 | ≥ 100 |  | 
CC#CC(=O)N1CCC[C@H](c2c(F)cc(C(N)=O)c3[nH]c(C)c(Cl)c23)C1 [Compound 17, (R)-4-(1-(but-2-ynoyl)piperidin-3-yl)-3-chloro-5-fluoro-2-methyl-1H-indole-7-carboxamide] | ≥ 100 | ≥ 100 |  | 
CC#CC(=O)N1CCC[C@@H](c2c(F)cc(C(N)=O)c3[nH]c(C)c(Cl)c23)C1 [Compound 18, (S)-4-(1-(but-2-ynoyl)piperidin-3-yl)-3-chloro-5-fluoro-2-methyl-1H-indole-7-carboxamide] | ≥ 100 | ≥ 100 |  | 
CC#CC(=O)N1CCC=C(c2c(F)cc(C(N)=O)c3[nH]c(C)c(Cl)c23)C1 [Compound 19, 4-(1-(but-2-ynoyl)-1,2,5,6-tetrahydropyridin-3-yl)-3-chloro-5-fluoro-2-methyl-1H-indole-7-carboxamide] | ≥ 100 | ≥ 100 |  | 
C=CC(=O)N1CCc2c(cccc2-c2c(F)cc(C(N)=O)c3[nH]c(C)c(C#N)c23)C1 [Compound 20g, 4-(2-acryloyl-1,2,3,4-tetrahydroisoquinolin-5-yl)-3-cyano-5-fluoro-2-methyl-1H-indole-7-carboxamide] |  | < 10 | 10 to 100 | 
C#CC(=O)N1CCc2c(cccc2-c2c(F)cc(C(N)=O)c3[nH]c(C)c(C)c23)C1 [Compound 20j, 5-fluoro-2,3-dimethyl-4-(2-propioloyl-1,2,3,4-tetrahydroisoquinolin-5-yl)-1H-indole-7-carboxamide] | 10 to 100 | < 10 |  | 
C=CC(=O)N1CCc2c(-c3c(F)cc(C(N)=O)c4[nH]c(C)cc34)cccc2C1C1CC1 (centres unmarked) [Compound 23, 4-(2-acryloyl-1-cyclopropyl-1,2,3,4-tetrahydroisoquinolin-5-yl)-5-fluoro-2-methyl-1H-indole-7-carboxamide] | 10 to 100 | 10 to 100 |  | 
C=CC(=O)N1CCCc2c(cccc2-c2c(F)cc(C(N)=O)c3[nH]c(C)cc23)C1 [Compound 25b, 4-(2-acryloyl-2,3,4,5-tetrahydro-1H-benzo[c]azepin-6-yl)-5-fluoro-2-methyl-1H-indole-7-carboxamide] |  | 10 to 100 |  | ≥ 100
C=CC(=O)N1CC2CC1c1cccc(-c3c(F)cc(C(N)=O)c4[nH]c(C)c(Cl)c34)c12 (centres unmarked) [Compound 26, 4-(2-acryloyl-1,2,3,4-tetrahydro-1,4-methanoisoquinolin-5-yl)-3-chloro-5-fluoro-2-methyl-1H-indole-7-carboxamide] | ≥ 100 | ≥ 100 |  | 
C=CC(=O)N[C@H]1CN(c2c(F)cc(C(N)=O)c3[nH]c(C)c(C)c23)CC[C@@H]1F [Compound 30, 4-((3S,4S)-3-acrylamido-4-fluoropiperidin-1-yl)-5-fluoro-2,3-dimethyl-1H-indole-7-carboxamide] | 10 to 100 | 10 to 100 |  | 
C=CC(=O)N[C@H]1CN(c2c(F)cc(C(N)=O)c3[nH]c(C)c(C)c23)CC[C@H]1F [Compound 31, 4-((3S,4R)-3-acrylamido-4-fluoropiperidin-1-yl)-5-fluoro-2,3-dimethyl-1H-indole-7-carboxamide] | 10 to 100 | 10 to 100 |  | 
C=CC(=O)N[C@H]1C[C@@H](F)CN(c2c(F)cc(C(N)=O)c3[nH]c(C)c(C)c23)C1 [Compound 34, 4-((3S,5R)-3-acrylamido-5-fluoropiperidin-1-yl)-5-fluoro-2,3-dimethyl-1H-indole-7-carboxamide] | ≥ 100 | 10 to 100 |  | 
C=CC(=O)N[C@H]1C[C@@H](O)CN(c2c(F)cc(C(N)=O)c3[nH]c(C)c(C)c23)C1 [Compound 37, 4-((3S,5R)-3-acrylamido-5-hydroxypiperidin-1-yl)-5-fluoro-2,3-dimethyl-1H-indole-7-carboxamide] | ≥ 100 | 10 to 100 |  | 
C=CC(=O)N[C@H]1C[C@H](O)CN(c2c(F)cc(C(N)=O)c3[nH]c(C)c(C)c23)C1 [Compound 38, 4-((3S,5S)-3-acrylamido-5-hydroxypiperidin-1-yl)-5-fluoro-2,3-dimethyl-1H-indole-7-carboxamide] | 10 to 100 | 10 to 100 |  | 

Now from value to molecule, other results behind:

IC50 ([1]; Homo sapiens, Ramos) [nM] | IC50 (BTK) [nM] | IC50 [1] [nM] | SMILES | IC50 ([1]; Homo sapiens) [nM]
 | < 10 | 10 to 100 | C=CC(=O)N1CCc2c(cccc2-c2c(F)c(F)c(C(N)=O)c3[nH]c(C)c(Cl)c23)C1 [Compound 21a, 4-(2-acryloyl-1,2,3,4-tetrahydroisoquinolin-5-yl)-3-chloro-5,6-difluoro-2-methyl-1H-indole-7-carboxamide] | 
10 to 100 | 10 to 100 |  | C=CC(=O)N1CCc2c(cccc2-c2c(F)c(F)c(C(N)=O)c3[nH]c(C)c(F)c23)C1 [Compound 21d, 4-(2-acryloyl-1,2,3,4-tetrahydroisoquinolin-5-yl)-3,5,6-trifluoro-2-methyl-1H-indole-7-carboxamide] | 
10 to 100 | 10 to 100 |  | C=CC(=O)N1CCc2c(cccc2-c2c(F)c(F)c(C(N)=O)c3[nH]c(C)c(C#N)c23)C1 [Compound 21e, 4-(2-acryloyl-1,2,3,4-tetrahydroisoquinolin-5-yl)-3-cyano-5,6-difluoro-2-methyl-1H-indole-7-carboxamide] | 
≥ 100 | 10 to 100 |  | C=CC(=O)N1Cc2cccc(-c3c(F)cc(C(N)=O)c4[nH]c(C)c(Cl)c34)c2C2(CC2)C1 [Compound 24a, 4-(2′-Acryloyl-2′,3′-dihydro-1′H-spiro[cyclopropane-1,4′-isoquinolin]-5′-yl)-3-chloro-5-fluoro-2-methyl-1H-indole-7-carboxamide] | 
≥ 100 | ≥ 100 |  | C=CC(=O)N1Cc2cccc(-c3c(F)cc(C(N)=O)c4[nH]c(C)cc34)c2C2(CC2)C1 [Compound 24b, 4-(2′-acryloyl-2′,3′-dihydro-1′H-spiro[cyclopropane-1,4′-isoquinolin]-5′-yl)-5-fluoro-2-methyl-1H-indole-7-carboxamide] | 
10 to 100 | 10 to 100 |  | C=CC(=O)N1CCCc2c(cccc2-c2c(F)cc(C(N)=O)c3[nH]c(C)c(Cl)c23)C1 [Compound 25a, 4-(2-Acryloyl-2,3,4,5-tetrahydro-1H-benzo[c]azepin-6-yl)-3-chloro-5-fluoro-2-methyl-1H-indole-7-carboxamide] | 
≥ 100 | 10 to 100 |  | C=CC(=O)N1CCCc2c(cccc2-c2c(F)cc(C(N)=O)c3[nH]c(C)c(F)c23)C1 [Compound 25e, 4-(2-acryloyl-2,3,4,5-tetrahydro-1H-benzo[c]azepin-6-yl)-3,5-difluoro-2-methyl-1H-indole-7-carboxamide] | 
